Data: publication PMC4240915, “Insights into the posttranslational assembly of the Mo-, S- and Cu-containing cluster in the active site of CO dehydrogenase of Oligotropha carboxidovorans” (Journal of Biological Inorganic Chemistry, 2014)

Experiments:
[1] = target: T1, CO dehydrogenase (FAD site on CoxM) (Afipia carboxidovorans, UniProt P19920); experiment: photometric assay of CO oxidation with INT as electron acceptor; type: biochemical; settings: electron acceptor with CO as electron donor, 30 °C; acceptor site (FAD) not shown in the paper
T1 construct: native enzyme purified from wild-type O. carboxidovorans OM5; same complex as P1, as isolated with [CuSMoO2] cluster; with Carbon monoxide dehydrogenase large chain; Carbon monoxide dehydrogenase small chain
T1 sequence (P19920 1-288): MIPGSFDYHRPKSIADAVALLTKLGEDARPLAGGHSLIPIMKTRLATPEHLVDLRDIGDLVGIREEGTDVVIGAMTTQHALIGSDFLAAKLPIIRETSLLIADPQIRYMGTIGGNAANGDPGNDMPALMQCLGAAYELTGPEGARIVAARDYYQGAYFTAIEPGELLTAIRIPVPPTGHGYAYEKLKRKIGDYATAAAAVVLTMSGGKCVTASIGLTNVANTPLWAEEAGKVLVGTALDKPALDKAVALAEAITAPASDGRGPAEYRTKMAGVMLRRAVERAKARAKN
T1 sequence (P19919 1-809 partner): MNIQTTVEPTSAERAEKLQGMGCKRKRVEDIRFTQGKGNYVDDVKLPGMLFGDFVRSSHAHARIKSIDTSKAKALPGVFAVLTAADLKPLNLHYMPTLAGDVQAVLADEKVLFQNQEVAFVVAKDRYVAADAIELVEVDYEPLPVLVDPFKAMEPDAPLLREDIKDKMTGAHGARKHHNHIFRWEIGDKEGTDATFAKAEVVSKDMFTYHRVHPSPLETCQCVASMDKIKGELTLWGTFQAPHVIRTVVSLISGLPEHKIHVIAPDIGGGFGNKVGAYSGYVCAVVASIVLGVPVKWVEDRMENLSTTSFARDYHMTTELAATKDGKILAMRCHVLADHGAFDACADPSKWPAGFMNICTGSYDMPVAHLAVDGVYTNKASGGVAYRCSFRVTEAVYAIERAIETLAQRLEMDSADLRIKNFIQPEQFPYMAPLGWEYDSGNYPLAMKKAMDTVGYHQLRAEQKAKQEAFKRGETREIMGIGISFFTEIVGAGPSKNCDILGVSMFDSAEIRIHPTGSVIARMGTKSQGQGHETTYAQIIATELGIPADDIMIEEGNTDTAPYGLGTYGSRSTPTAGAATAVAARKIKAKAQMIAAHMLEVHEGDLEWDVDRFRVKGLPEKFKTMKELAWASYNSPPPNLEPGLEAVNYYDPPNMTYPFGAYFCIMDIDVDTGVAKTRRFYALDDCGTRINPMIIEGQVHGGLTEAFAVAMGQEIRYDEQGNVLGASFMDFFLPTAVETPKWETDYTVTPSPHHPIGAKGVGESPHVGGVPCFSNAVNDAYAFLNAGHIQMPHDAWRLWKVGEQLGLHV
T1 sequence (P19921 1-166 partner): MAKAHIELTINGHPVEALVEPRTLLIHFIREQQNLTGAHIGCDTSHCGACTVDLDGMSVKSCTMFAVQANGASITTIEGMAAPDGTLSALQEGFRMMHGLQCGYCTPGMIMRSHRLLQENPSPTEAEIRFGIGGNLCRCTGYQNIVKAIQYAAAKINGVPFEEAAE

[2] = target: T2, CO dehydrogenase (molybdenum site on CoxL) (Afipia carboxidovorans, UniProt P19919); experiment: Mo(V) EPR at […] K; type: binding; settings: 15 mM ligand, 50 mM HEPES pH 7.2, N2, 25 min room temperature; resulfurated copper-free [MoO2S] enzyme; covalent (mixed disulfide at Mo-bound sulfur)
T2 construct: native enzyme purified from O. carboxidovorans OM5; Mo-, Fe-S- and FAD-containing; Cu and sulfane sulfur removed by KCN, then resulfurated to the [MoO2S] form (copper-free); with Carbon monoxide dehydrogenase medium chain; Carbon monoxide dehydrogenase small chain
T2 sequence (P19919 1-809): T1 sequence (P19919 1-809 partner)
T2 sequence (P19921 1-166 partner): T1 sequence (P19921 1-166 partner)
T2 sequence (P19920 1-288 partner): T1 sequence (P19920 1-288)

[3] = target: T1, CO dehydrogenase (FAD site on CoxM); experiment: spectrophotometric FAD determination at […] nm after trichloroacetic acid precipitation; type: binding; settings: wild-type enzyme from CO-grown cells; co-purified cofactor

`O=[N+]([O-])c1ccc(-[n+]2nc(-c3ccccc3)nn2-c2ccc(I)cc2)cc1` [INT, 1-phenyl-2-(4-iodo-phenyl)-3-(4-nitrophenyl)-2H-tetrazolium chloride] was tested, and the “photometric assay of CO oxidation with INT as electron acceptor” value [1] was “CO-oxidizing activity was assayed photometrically employing INT”.
In the case of `N[C@@H](CS)C(=O)O` [L-cysteine], the “Mo(V) EPR at 120 K” value [2] is reported as “SH group of the studied sulfur compounds can bind to the equatorial sulfur of [MoO2S]”.
With `Cc1cc2nc3c(=O)[nH]c(=O)nc-3n(C[C@H](O)[C@H](O)[C@H](O)COP(=O)(O)OP(=O)(O)OC[C@H]3O[C@@H](n4cnc5c(N)ncnc54)[C@H](O)[C@@H]3O)c2cc1C` [FAD] the “Wild type (CO)” value [3] was 1.93 ± 0.08 mol per mol.
